According to ChEMBL document CHEMBL5634117 (Eur J Med Chem, 2023):
The source made the active and inactive calls. No cut-off for these calls is given here.

Tests used:
[1] = system: BT-549; assay: Growth inhibition of human BT-549 cells assessed as reduction in cell viability measured after 48 hrs by SRB assay; format: functional
[2] = system: SK-OV-3; assay: Growth inhibition of human SK-OV-3 cells assessed as reduction in cell viability measured after 48 hrs by SRB assay; format: functional
[3] = system: HCT-116; assay: Growth inhibition of human HCT-116 cells assessed as reduction in cell viability measured after 48 hrs by SRB assay; format: functional
[4] = system: MDA-MB-468; assay: Growth inhibition of human MDA-MB-468 cells assessed as reduction in cell viability measured after 48 hrs by SRB assay; format: functional
[5] = system: IGROV-1; assay: Growth inhibition of human IGROV-1 cells assessed as reduction in cell viability measured after 48 hrs by SRB assay; format: functional
[6] = system: KM12; assay: Growth inhibition of human KM12 cells assessed as reduction in cell viability measured after 48 hrs by SRB assay; format: functional
[7] = system: A549; assay: Growth inhibition of human A549 cells assessed as reduction in cell viability measured after 48 hrs by SRB assay; format: functional
[8] = system: SR; assay: Growth inhibition of human SR cells assessed as reduction in cell viability measured after 48 hrs by SRB assay; format: functional
[9] = system: CAKI-1; assay: Growth inhibition of human CAKI-1 cells assessed as reduction in cell viability measured after 48 hrs by SRB assay; format: functional
[10] = system: K562; assay: Growth inhibition of human K562 cells assessed as reduction in cell viability measured after 48 hrs by SRB assay; format: functional
[11] = system: COLO 205; assay: Growth inhibition of human COLO 205 cells assessed as reduction in cell viability measured after 48 hrs by SRB assay; format: functional
[12] = system: OVCAR-5; assay: Growth inhibition of human OVCAR-5 cells assessed as reduction in cell viability measured after 48 hrs by SRB assay; format: functional
[13] = system: U-251; assay: Growth inhibition of human U-251 cells assessed as reduction in cell viability measured after 48 hrs by SRB assay; format: functional
[14] = system: SNB-19; assay: Growth inhibition of human SNB-19 cells assessed as reduction in cell viability measured after 48 hrs by SRB assay; format: functional
[15] = system: CCRF-CEM; assay: Growth inhibition of human CCRF-CEM cells assessed as reduction in cell viability measured after 48 hrs by SRB assay; format: functional
[16] = system: 786-0; assay: Growth inhibition of human 786-0 cells assessed as reduction in cell viability measured after 48 hrs by SRB assay; format: functional
[17] = system: HL-60(TB); assay: Growth inhibition of human HL-60(TB) cells assessed as reduction in cell viability measured after 48 hrs by SRB assay; format: functional
[18] = system: K562; assay: Induction of apoptosis in human K562 cells assessed as late apoptotic cells at 1.28 uM incubated for 24 hrs by annexinV and propidium iodide staining based flow cytometry analysis (reference value: 0.82%); format: functional
[19] = system: K562; assay: Induction of cell cycle arrest in human K562 cells assessed as accumulation of cells at G2/M phase at 2.56 uM measured after 24 hrs by PI staining based flow cytometry analysis (reference value: 25.62%); format: functional
[20] = system: K562; assay: Induction of apoptosis in human K562 cells assessed as late apoptotic cells at 0.64 uM incubated for 24 hrs by annexinV and propidium iodide staining based flow cytometry analysis (reference value: 0.82%); format: functional
[21] = system: K562; assay: Induction of cell cycle arrest in human K562 cells assessed as accumulation of cells at SubG1 phase at 0.64 uM measured after 24 hrs by PI staining based flow cytometry analysis (reference value: 2.21%); format: functional
[22] = system: K562; assay: Induction of cell cycle arrest in human K562 cells assessed as accumulation of cells at S phase at 0.64 uM measured after 24 hrs by PI staining based flow cytometry analysis (reference value: 24.75%); format: functional
[23] = system: K562; assay: Induction of autophagy in human K562 cells assessed as increase in beclin-1 level at 1.28 uM measured after 24 hrs by Western blotting analysis; format: functional, cell-based
[24] = system: K562; assay: Induction of autophagy in human K562 cells assessed as increase in beclin-1 level at 2.56 uM measured after 24 hrs by Western blotting analysis; format: functional, cell-based
[25] = system: K562; assay: Induction of apoptosis in human K562 cells assessed as early apoptotic cells at 1.28 uM incubated for 24 hrs by annexinV and propidium iodide staining based flow cytometry analysis (reference value: 0.42%); format: functional
[26] = system: K562; assay: Induction of cell cycle arrest in human K562 cells assessed as accumulation of cells at SubG1 phase at 1.28 uM measured after 24 hrs by PI staining based flow cytometry analysis (reference value: 2.48%); format: functional
[27] = system: K562; assay: Induction of cell cycle arrest in human K562 cells assessed as accumulation of cells at G0/G1 phase at 5 uM measured after 24 hrs by PI staining based flow cytometry analysis (reference value: 46.67%); format: functional
[28] = system: K562; assay: Induction of autophagy in human K562 cells assessed as increase in beclin-1 level at 2.5 to 5 uM measured after 24 hrs by Western blotting analysis; format: functional, cell-based; conditions: dose 2.5-5 µM
[29] = system: K562; assay: Induction of apoptosis in human K562 cells assessed as late apoptotic cells at 1.28 uM incubated for 24 hrs by annexinV and propidium iodide staining based flow cytometry analysis (reference value: 1.34%); format: functional
[30] = system: K562; assay: Induction of cell cycle arrest in human K562 cells assessed as accumulation of cells at G2/M phase at 2.5 uM measured after 24 hrs by PI staining based flow cytometry analysis (reference value: 29.44%); format: functional
[31] = system: K562; assay: Induction of apoptosis in human K562 cells assessed as early apoptotic cells at 2.5 uM incubated for 24 hrs by annexinV and propidium iodide staining based flow cytometry analysis (reference value: 0.42%); format: functional
[32] = system: K562; assay: Induction of cell cycle arrest in human K562 cells assessed as accumulation of cells at S phase at 5 uM measured after 24 hrs by PI staining based flow cytometry analysis (reference value: 20.42%); format: functional
[33] = system: K562; assay: Induction of cell cycle arrest in human K562 cells assessed as accumulation of cells at G0/G1 phase at 2.56 uM measured after 24 hrs by PI staining based flow cytometry analysis (reference value: 46.71%); format: functional
[34] = system: K562; assay: Induction of apoptosis in human K562 cells assessed as early apoptotic cells at 0.64 uM incubated for 24 hrs by annexinV and propidium iodide staining based flow cytometry analysis (reference value: 0.42%); format: functional
[35] = system: K562; assay: Induction of cell cycle arrest in human K562 cells assessed as accumulation of cells at SubG1 phase at 0.64 uM measured after 24 hrs by PI staining based flow cytometry analysis (reference value: 2.48%); format: functional
[36] = system: K562; assay: Induction of apoptosis in human K562 cells assessed as early apoptotic cells at 5 uM incubated for 24 hrs by annexinV and propidium iodide staining based flow cytometry analysis (reference value: 0.42%); format: functional
[37] = system: K562; assay: Induction of cell cycle arrest in human K562 cells assessed as accumulation of cells at SubG1 phase at 5 uM measured after 24 hrs by PI staining based flow cytometry analysis (reference value: 3.43%); format: functional
[38] = system: K562; assay: Induction of cell cycle arrest in human K562 cells assessed as accumulation of cells at S phase at 2.5 uM measured after 24 hrs by PI staining based flow cytometry analysis (reference value: 20.42%); format: functional

| Structure (SMILES) | GI50 [1] [nM] | GI50 [2] [nM] | GI50 [3] [nM] | GI50 [4] [nM] | GI50 [5] [nM] | GI50 [6] [nM] | GI50 [7] [nM] | GI50 [8] [nM] | GI50 [9] [nM] | GI50 [10] [nM] | GI50 [11] [nM] | GI50 [12] [nM] | GI50 [13] [nM] | GI50 [14] [nM] | GI50 [15] [nM] | GI50 [16] [nM] | GI50 [17] [nM] | further results |
| --- | --- | --- | --- | --- | --- | --- | --- | --- | --- | --- | --- | --- | --- | --- | --- | --- | --- | --- |
| CC(C)(C)n1cc(-c2ccnc(NCCCNS(=O)(=O)c3ccc(Br)cc3)c2)c(-c2cccc(O)c2)n1 | 1500 | 2520 | 1310 | 2100 | 1910 | 2110 | 2110 | 2000 | 2160 | 2020 | 1850 | 1870 | 1650 | 2110 | 2260 | 1660 | 2720 | – |
| CC(C)(C)n1cc(-c2ccnc(NCCCNS(=O)(=O)c3ccc(Cl)cc3)c2)c(-c2cccc(O)c2)n1 | 1670 | 2350 | 1670 | 1800 | 1880 | 2080 | 1970 | 1750 | 2060 | 1280 | 1660 | 1570 | 1620 | 2180 | 2130 | 2030 | 2510 | Activity [18]: 0.56%; Activity [19]: 94.29%; Activity [20]: 0.48%; Activity [21]: 2.16%; Activity [22]: 30.99%; Activity [23]: Active; Activity [24]: inactive |
| CC(C)(C)n1cc(-c2ccnc(NCCCNS(=O)(=O)c3cccc4ccccc34)c2)c(-c2cccc(O)c2)n1 | 1840 | 2630 | 1400 | 2040 | 2140 | 2340 | 2290 | 1400 | 2490 | 1480 | 1890 | 1980 | 1730 | 2630 | 2440 | 2090 | 2680 | – |
| CC(C)(C)n1cc(-c2ccnc(NCCCNS(=O)(=O)c3ccc(C(F)(F)F)cc3)c2)c(-c2cccc(O)c2)n1 | 1610 | 2690 | 1550 | 1880 | 1800 | 2150 | 2020 | 2210 | 1990 | 2100 | 1950 | 1810 | 1710 | 1980 | 2980 | 1800 | 2810 | – |
| O=C1c2ccccc2-c2n[nH]c3cccc1c23 | 30800 | 21000 | 44600 | – | 11400 | 2620 | 14900 | 13100 | 3560 | 48600 | 19500 | 24400 | 23100 | 50000 | 16000 | 27100 | 42100 | Activity [25]: 0.66%; Activity [26]: 7.26%; Activity [27]: 28.76%; Activity [28]: Active; Activity [29]: 1.25%; Activity [30]: 45.34%; Activity [31]: 1.17%; Activity [32]: 20.04%; Activity [33]: 37.63%; Activity [34]: 1.59%; Activity [35]: 4.68%; Activity [36]: 1.5%; Activity [37]: 4.01%; Activity [38]: 19.27% |
